From paper PMC12535076, “Neurotherapeutic effects of Vutiglabridin as a Paraoxonase-2 modulator in preclinical models of Parkinson’s disease” (Molecular Neurodegeneration, 2025) come the findings set out here.

Values joined by “and” are separate entries in the source; they are usually repeats but may differ in a detail not shown here. Identical values can stand only once.

Assay [1] addresses T1, recombinant human PON2 (rePON2) (Homo sapiens, UniProt Q15165).
T1 construct: made in house; host or cells: E. coli BL21 (DE3), pET21b
Put plainly: Mass spectrometry-based binding assay. To be noted: 10 nM Vuti incubated with rePON2 0-500 nM for 30 min, LC-MS/MS; read-out: dissociation constant (Kd). From the text:
The codon-optimization of HsPON2 was for Escherichia coli system and synthesized according to the full-length open reading frame (GenBank accession No. AAC41995.1) from National Center for Biotechnology Information (NCBI; http://www.ncbi.nlm.nih.gov). The HsPON2 gene was amplified by a standard PCR method with a primer set (Forward; 5’-[…]-3’, Reverse; 5’-[…]-3’) and inserted into an expression vector (pET21b; New England Biolabs, USA) using NdeI and XhoI restriction enzyme sites (underlined). […] The recombinant construct was transformed into E. coli BL21 (DE3) competent cells. The transformed cells were activated overnight and transferred to 1 L of LB broth (BD bioscience, USA) with 100 µg/mL ampicillin (Duchefa Biochemie, The Netherlands) containing 0.1% glucose, and then incubated at 37 ℃ and 200 rpm in incubator (Vision Scientific, Korea) until reaching the optical density of 0.6–0.8 at 600 nm (OD600). […] The eluted HsPON2 protein was analyzed by a 12% SDS-PAGE and concentrated up to approximately 1 mL by 10 kDa filter-size amicon (Merck Millipore, USA). […]
The method followed the concept of previously established protocol. […] The supernatant, which now contains rePON2-bound Vuti, was collected, dried, and re-suspended in acetonitrile, and the drug quantification was performed via LC-MS/MS analysis.

The target in the next assay is T2, MAO-A (Homo sapiens, UniProt P21397).
T2 sequence (P21397 1-527): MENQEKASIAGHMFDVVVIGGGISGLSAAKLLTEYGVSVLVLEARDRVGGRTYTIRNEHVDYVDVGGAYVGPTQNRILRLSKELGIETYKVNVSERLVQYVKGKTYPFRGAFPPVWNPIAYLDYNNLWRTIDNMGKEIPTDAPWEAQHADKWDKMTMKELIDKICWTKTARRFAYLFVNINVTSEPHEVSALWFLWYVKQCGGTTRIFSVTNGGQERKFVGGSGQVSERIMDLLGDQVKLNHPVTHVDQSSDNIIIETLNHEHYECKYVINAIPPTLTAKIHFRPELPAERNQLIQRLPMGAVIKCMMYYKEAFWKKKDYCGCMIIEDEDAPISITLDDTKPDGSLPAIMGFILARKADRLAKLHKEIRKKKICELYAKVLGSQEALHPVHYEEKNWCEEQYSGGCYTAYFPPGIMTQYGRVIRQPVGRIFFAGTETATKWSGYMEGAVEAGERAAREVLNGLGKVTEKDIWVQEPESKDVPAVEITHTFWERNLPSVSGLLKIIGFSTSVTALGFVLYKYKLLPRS
The assay can be described thus: ROS Glo based MAO-A enzyme activity assay. It counts as biochemical. Particulars: printed as 'separate MAO-B assay' within the MAO-A panel (b); read-out: IC50, ROS-Glo method, panel (b). On the procedure: An enzyme solution was prepared by diluting 10 µL of a 2.5 mg/mL MAO-A or MAO-B stock in 10 mL of 50 mM sodium phosphate buffer (pH 7.4). A substrate solution was prepared by diluting 200 µL of a 100 mM benzylamine (or tyramine) stock in 10 mL phosphate buffer to achieve a final concentration of 1 mM. For each 96-well plate experiment, 12.5 µL of a 1× H2O2 probe solution was added to 1 mL of the probe dilution buffer from the ROS Glo™ kit. Separately, 40 µL of cysteine and enhancer were diluted into 4 mL of Luciferin solution. In each well, 49 µL of the enzyme solution was dispensed, followed by 1 µL of the test compound, and incubated for 30 min. Then, 49 µL of the substrate solution was added, and the reaction proceeded at 37 °C for 60 min. Next, 10 µL of the H2O2 probe solution was added and incubated for 15 min. Subsequently, 40 µL of a luciferin solution containing cysteine and an enhancer was added, followed by an additional 30-minute incubation at 37 °C. Luminescence was subsequently recorded using a microplate luminescence reader (SpectraMax i3, Molecular Devices).

T1 sequence (Q15165 1-354 isoform Q15165-1): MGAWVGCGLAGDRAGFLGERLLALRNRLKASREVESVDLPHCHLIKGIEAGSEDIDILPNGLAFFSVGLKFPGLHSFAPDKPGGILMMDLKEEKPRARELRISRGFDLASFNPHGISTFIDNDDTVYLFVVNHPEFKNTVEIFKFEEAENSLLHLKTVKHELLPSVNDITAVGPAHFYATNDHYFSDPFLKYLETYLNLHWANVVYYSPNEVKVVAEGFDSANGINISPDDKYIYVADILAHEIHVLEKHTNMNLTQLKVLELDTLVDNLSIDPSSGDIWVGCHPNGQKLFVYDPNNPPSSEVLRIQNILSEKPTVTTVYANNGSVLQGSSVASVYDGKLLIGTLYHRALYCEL

What is called Kd is a measure of binding affinity in units of concentration. For orientation: IC50 means the point on the concentration scale where inhibition reaches its midpoint. As to `CCOc1ccc(C2COc3c(ccc4c3CCC(C)(C)O4)C2)c(O)c1` (centres unmarked) [Vuti, Vutiglabridin], in assay [1], the equilibrium dissociation constant (Kd) is 78.9 nM and 78 nM. For the same compound, the IC50 at MAO-A came to 24700 nM.
